Consider 1 compound from patent US10426777B2, “Methods used to treat cancer” (THE TRANSLATIONAL GENOMICS RESEARCH INSTITUTE, priority 2009, dated 2019).

Data set [1] concerns T98G, GBM10, and GBM43 cells. In words: Glioma cell proliferation by automated cell counting. The data set is classed as cell-based, Human. To be noted: doses up to 500 μM, 0-144 hours. The method, then: (§1) FIG. 25A—T98G, GBM43, and GBM10 cells were incubated with increasing concentrations of PPF (0, 5, 50, and 500 μM). After 0, 48, 96 and 144 hours of treatment, cell were trypsinized and counted using an automated cell counter. FIG. 24B—GBM43, GBM10, and T98G glioma cells were treated with increasing doses of PPF (0.5, 1, 5, 10, and 20 μM) in triplicate. The Cell Titer Glo (Promega) reagent was used to measure survival. Raw values were normalized on a plate-by-plate basis such that 100% cell viability was equivalent to the mean of vehicle wells and 0% cell viability was equivalent to the mean of the MG132 positive control. The normalized data was used to assess viability of glioma cells after PPF treatment.
(§2) Referring now to FIGS. 25A and 25B: To determine if PPF influences glioma cell proliferation, the inventors treated T98G, GBM10, and GBM43 cells with increasing concentrations of PPF and evaluated cell proliferation over the course of 144 hours. Briefly, 1.25×10^5 cells were seeded (n=3) in 12-well plates in 1 mL of DMEM supplemented with 10% FBS and allowed to attach at 37° for 16 hrs. […] After 0, 48, 96 and 144 hours of treatment, the cells were trypsinized and counted using the automated cell counter. […] Subsequently, 100 μL of CellTiterGlo® reagent was added to each well and luminescence was measured using Envision Reader. […]

Data set [2] concerns AKT. Description: AKT activation (phosphorylation) by immunoblot. Particulars: T98G and GBM43 cells; PPF 5 μM. The data set is classed as cell-based, Human. On the procedure: (§3) FIGS. 26A-26C depict that PPF sensitizes GBM cells to TMZ and radiotherapy. FIG. 26A—A clonogenic assay was used to assess T98G and GBM43 cells survival after TMZ and radiation treatment. Cells were pre-treated with 5 μM PPF for 24 hours, and then either treated with 250 μM TMZ for 24 hours or exposed to 2 Gy radiation. Graph depicts the surviving fraction in the treated cells compared to vehicle (VC) treated or non-treated (NT) cells, **p<0.01. FIG. 26B—T98G glioma cells were treated with vehicle, PPF (5 μM), TMZ (250 μM), and PPF in combination with TMZ. TMZ-induced apoptosis was assayed by immunoblot analysis of cell lysates with an antibody to cleaved PARP. Immunoblotting for α-Tubulin was included as a loading control. FIG. 26C—T98G, GBM10, and GBM43 cells were treated with PPF (5 μM), lysed, and then immunoblotted to assess the activation of AKT and NF-κB. Immunoblotting for […] is included as a loading control.
(§4) Referring now to FIGS. 26A, 26B, and 26C: Knockdown of TROY expression with shRNA decreases TMZ resistance in GBM cells in vitro (See Reference 42). […] Following combination therapy, cells were trypsinized, counted, and plated in a 6-well culture dish at densities of 100, 250, and 500 cells per well in triplicate. Cells were incubated for 12 days then fixed, stained with 0.5% crystal violet solution, and counted manually by blinded observers. […]
In general terms: In western blotting, separated proteins are transferred to a membrane and probed.

Data set [3] concerns T98G, GBM10, and GBM43 cells. Description: Lamellipodia formation and membrane ruffling (F-actin staining). The data set is classed as cell-based, Human. Particulars: 5 μM PPF 1 hour, then 10% FBS 5 min. On the procedure: FIGS. 28A and 28B depict that PPF suppresses GBM cell membrane ruffling. FIG. 28A—GBM43 cells were preincubated with 5 μM PPF or vehicle for 1 hour prior to 10% FBS stimulation for 5 min. After FBS stimulation, cells were fixed, permeabilized, and stained for F-actin. For each experimental condition, at least 12 images were taken randomly. Arrowhead indicates membrane ruffles. FIG. 28B—Graph depicts the average lamellipodia in T98G, GBM10, and GBM43 cells in the presence or absence of 10% FBS with or without 5 μM PPF as indicated. Lamellipodia were traced using Image J software.
Referring now to FIGS. 28A and 28B: The inventors investigated lamellipodia formation and membrane ruffling. Briefly, glioma cells were plated onto 10-well glass slides pre-coated with 10 μg/ml laminin at the density of 3000 cells/well for 24 hours at 37° C. Subsequently, cells were serum starved for 16 hours. The cells were pre-incubated with 5 μM PPF or vehicle for 1 hour prior to 10% FBS stimulation for 5 min. After FBS stimulation, cells were fixed in 4% PFA, permeabilized with 0.1% Triton X-100, and incubated with Alexa Fluor® 555 Phalloidin (Invitrogen) to stain for F-actin. Slides were mounted with ProLong® reagent with DAPI and imaged using a Zeiss LSM 510 microscope. For each experimental condition, at least 12 images were randomly taken. Lamellipodia were traced using ImageJ software.

For data set [4], the system named is microglia. Particulars: Reference 41; cited from earlier work.
Data set [5] relates to CNS-1 rat model. Particulars: systemic PPF treatment, via modulation of microglia; cited from earlier work.
Data set [6] deals with Rac1. Description: Rac1 activation assay after FBS stimulation. The data set is classed as cell-based, Human. To be noted: T98G cells; 5 μM PPF 1 hour, then 10% FBS 2-10 mins. The method, then:
(§5) FIGS. 27A and 27B depict that PPF suppresses GBM cell invasion and Rac1 activation. FIG. 27A—T98G, GBM10, and GBM43 glioma cells were treated with 5 μM PPF and invasion was assayed over 24 hours utilizing a Matrigel invasion assay, *p<0.05. FIG. 27B—T98G glioma cells were serum starved, pre-incubated with 5 μM PPF or vehicle for 1 hour, and then stimulated with 10% FBS for 2-10 mins. Cell lysates were harvested and equal concentrations of protein were assessed for Rac1 activation.
(§6) Referring now to FIGS. 27A and 27B: The inventors next examined whether PPF inhibited TROY dependent glioma cell invasion. […] Briefly, 5.0×10^5 glioma cells were seeded in 100-mm diameter culture dishes and incubated overnight at 37° C. Subsequently, cells were serum starved for 16 hours at 37° C. Cells were then harvested, re-suspended in growth factor reduced Matrigel (Becton Dickinson) (1.0×10^5 cells/50 uL), added in triplicates to collagen-coated transwell chambers, and allowed to invade through Matrigel in presence of 10% FBS and/or 5 μM PPF. After incubation for 24 hours at 37° C., non-invaded cells were scrapped off the upper side of the membrane and cells invaded to the other side of the membrane were fixed with 4% paraformaldehyde (PFA) (Affymetrix) and stained with DAPI (Invitrogen). Nuclei of invaded cells were counted in five high power fields (HPF) with a 20× objective.

Data set [7] has as its system T98G, GBM10, and GBM43 glioma cells. In words: Matrigel invasion assay. The data set is classed as cell-based, Human. Particulars: 5 μM PPF, 24 hours, 10% FBS. On the procedure:
as §5, §6

The conditions of data set [8]: clinical trials, cited from earlier work.
In data set [9] the test system is T98G and GBM43 cells. Description: Clonogenic survival assay with TMZ or radiation. The data set is classed as cell-based, Human. The method, then:
as §3, §4

For data set [10], the system named is TROY. Description: TROY expression in GBM cells by immunoblotting (Western blot). The data set is classed as cell-based, Human. The method, then: (§7) FIGS. 24A-24D illustrate that PPF treatment decreases TROY expression in GBM cells. FIG. 24A—a Western blot analysis of TROY expression in T98G cells. Cells were treated with PPF at indicated concentrations for 6 hrs, lysed, and cell lysates immunoblotted with anti-TROY antibody. Immunoblotting of α-Tubulin in cell lysates is included as a loading control. FIG. 24B—Western blot analysis of TROY expression in T98G, GBM43, and GBM10 cells. Cells were treated with PPF at indicated concentrations for 24 hrs, lysed, and cell lysates immunoblotted with anti-TROY and α-Tubulin antibodies. FIG. 24C—Western Blot analysis of TROY expression in GBM10 and GBM43 primary glioma cells. Cells were treated with 5 μM PPF, lysed at the indicated time-points, and the lysates immunoblotted with an anti-TROY antibody. Immunoblotting of β-Actin in cell lysates is included as a loading control. FIG. 24D—Western Blot analysis of T98G, GBM10 and GBM43 glioma cells treated with 5 μM PPF for 24 hours. Lysates were immunoblotted with anti-TROY, anti-TNFR1, anti-EGFR, and β-Actin antibodies.
Cell Culture Conditions: Human glioma cell line T98G (ATCC) was maintained in DMEM with high glucose (Invitrogen) supplemented with 10% heat-inactivated fetal bovine serum (FBS) (Invitrogen) in a 37° C., 5% CO2 atmosphere at constant humidity. The primary glioma patient derived xenograft (PDX) lines GBM10 and GBM43 were derived from patient surgical samples and maintained as flank xenografts in immunodeficient mice. GBM10 and GBM43 flank tumor were resected, brought to single cell suspension via mechanical dissociation, and maintained in DMEM+10% FBS for in vitro experiments. In the experiments with FBS stimulation, the cells were serum starved (DMEM+0.1% Bovine Serum Albumin (BSA)) for 16 hours before stimulation with 10% FBS in DMEM.
Referring now to FIGS. 24A, 24B, 24C, and 24D: The inventors investigated if PPF could be utilized pharmacologically to decrease TROY expression in GBM cells. The long-term established cell line T98G was first utilized to test the efficacy of PPF. Cells were treated with increasing concentration of PPF, 1 to 20 μM, lysed, and TROY expression assessed by immunoblotting. Briefly, monolayers of cells were washed in phosphate-buffered saline (PBS) containing 1 mM phenylmethylsulfonylfluoride and 1 mM sodium orthovanadate and then lysed in 2×SDS sample buffer containing protease and phosphatase inhibitors. Protein concentrations were determined using the BCA Assay (Pierce). Thirty micrograms of total protein was loaded per lane and separated by SDS-PAGE. […] Protein bands were detected using SuperSignal Chemiluminescent Substrate (Pierce) with a UVP BioSpectrum 500 Imaging System.

Data set [11] concerns cleaved PARP. In words: Apoptosis by immunoblot for cleaved PARP. The data set is classed as cell-based, Human. To be noted: T98G cells; PPF 5 μM, TMZ 250 μM. On the procedure:
as §3, §4

Data set [12] deals with TNFR1. In words: TNFR1 expression in glioma cells by Western blot. The data set is classed as cell-based, Human. Particulars: T98G, GBM10 and GBM43 cells, 5 μM PPF, 24 hours. The method, then:
as §7, with “FIG. 24D—Western Blot analysis of T98G, GBM10 and GBM43 glioma cells treated with 5 μM PPF for 24 hours. Lysates were immunoblotted with anti-TROY, anti-TNFR1, anti-EGFR, and β-Actin antibodies.” left out
(§8) Referring now to FIGS. 24A, 24B, 24C, and 24D: The inventors investigated if PPF could be utilized pharmacologically to decrease TROY expression in GBM cells. […] Cells were treated with increasing concentration of PPF, 1 to 20 μM, lysed, and TROY expression assessed by immunoblotting. […] Protein concentrations were determined using the BCA Assay (Pierce). […] Protein bands were detected using SuperSignal Chemiluminescent Substrate (Pierce) with a UVP BioSpectrum 500 Imaging System.

Data set [13] has as its system NF-κB. Description: NF-κB activation (phosphorylation) by immunoblot. The data set is classed as cell-based, Human. To be noted: T98G and GBM43 cells; PPF 5 μM. The method, then: as §3, §4
Data set [14] relates to EGFR. Description: EGFR expression in glioma cells by Western blot. The data set is classed as cell-based, Human. Particulars: T98G, GBM10 and GBM43 cells, 5 μM PPF, 24 hours. The method, then: as §7, with “FIG. 24D—Western Blot analysis of T98G, GBM10 and GBM43 glioma cells treated with 5 μM PPF for 24 hours. Lysates were immunoblotted with anti-TROY, anti-TNFR1, anti-EGFR, and β-Actin antibodies.” left out
as §8

The subject of data set [15] is T98G, GBM10, and GBM43 cells. In words: CellTiterGlo glioma cell cytotoxicity / viability assay. The data set is classed as cell-based, Human. To be noted: all three GBM cell lines; PPF 0.5 to 20 μM; 72 hours. On the procedure: as §1, §2
Background: In ATP-based viability assays light output follows the ATP content of the culture.

Data set [16] concerns TROY. Particulars: Reference 41; cited from earlier work.

The structures appear in SMILES notation.

As to `CCCn1cnc2c1c(=O)n(CCCCC(C)=O)c(=O)n2C` [PPF, 3-methyl-1-(5-oxohexyl)-7-propyl-3,7-dihydro-1H-purine-2,6-dione], in data set [1], the “proliferation of glioma cells” value is “did not affect”. Moreover, in [2], the AKT phosphorylation result is on record as “effectively decreased”. For the same compound, in data set [3], the “lamellipodia formation and membrane ruffling” value is recorded as “significantly decreased”. The migration of microglia result in data set [4] is “inhibit”. Besides, the tumor growth entry in data set [5] is on record as “decreased”. Besides, the Rac1 activation entry in data set [6] is recorded as “inhibited”. In [7], the glioma cell invasion entry is given as “significantly inhibited”. Further, the therapeutic efficacy result in data set [8] (Alzheimer's disease and vascular dementia) was “therapeutic efficacy”. In [8] (Reference 39), the side effect profile entry is “minimal side effect profile”. Further, the “surviving fraction, PPF and 2Gy radiation compared to 2Gy radiation alone” value in [9] (GBM cells, 5 μM PPF 24 hours then 2 Gy) was “significantly decreased”. Besides, the “surviving fraction, PPF in combination with TMZ compared to TMZ alone” value in data set [9] (T98G and GBM43, 5 μM PPF 24 hours then 250 μM TMZ 24 hours) is “significantly decreased”. In data set [10] (GBM10 and GBM43 cells, 5 μM PPF for varying lengths of time), the “TROY expression over time” value was “decreased in a time-dependent manner”. Moreover, the TROY expression entry in [10] (T98G cells, 1 μM PPF, 6 hrs) was “significant suppression”; in data set [10] (T98G cells, PPF 1 to 20 μM, 6 hrs), “decreased in concentration dependent manner”; in data set [10] (T98G, GBM10 and GBM43 cells, 5 μM PPF, 24 hrs), “effective in lowering TROY expression”. For the same compound, the “cleaved PARP, PPF and TMZ compared to TMZ alone” value in data set [11] was “increase”. For the same compound, the TNFR1 expression result in data set [12] was “did not affect”. Further, the NF-κB phosphorylation result in data set [13] is recorded as “effectively decreased”. For the same compound, in data set [14], the EGFR expression entry is “did not affect”. Besides, the cell viability result in data set [15] is recorded as “negligible loss of cell viability”. Further, in data set [16], the “TROY expression in microglia” value was “decreasing”.
